Earlier results on one compound are cited in patent US20250152701A1, “NKT CELL LIGAND-CONTAINING LIPOSOME COMPOSITION” (RIKEN, priority 2022, published 2025).

The conditions of this data set: Non Patent Literature 6.

With `CCCCCCCCCCCCCCCCCCCCCCCCCC(=O)N[C@@H](CO[C@H]1OC(CO)[C@H](O)C(O)C1O)[C@H](O)[C@H](O)CCCCCCCCCCCCCC` (stereo partly shown) [KRN7000], the anti-tumor activity result is given as “extremely strong anti-tumor activity”.
